Laboratory results: patent US20180140679A1, “MODULATION OF AXL RECEPTOR ACTIVITY IN COMBINATION WITH CYTOREDUCTIVE THERAPY” (THE BOARD OF TRUSTEES OF THE LELAND STANFORD JUNIOR …, priority 2016, published 2018)

What was measured:
[1] = system: phosphorylation of Axl, Mer, Tyro3, and downstream Akt signaling in OVCAR8 cells; test: Western blot of TAM receptor and Akt phosphorylation in OVCAR8 cells; assay type: cell-based, human
Source text: (§1) Cell lysates subjected to sodium dodecyl sulfate polyacrylamide gel electrophoresis followed by transfer to nitrocellulose membrane. The membranes were then probed with primary antibodies against total Axl (AF154, R&D Systems, INC., Minneapolis, Minn.), phospho-Axl (T702; #5724, CST, Danvers, Mass.), total Akt (#4691 CST, Danvers, Mass.), phosphor-Akt (#4060, CST, Danvers, Mass.), anti-MERTK (#ab52968, Abcam, Cambridge, Mass.), phospho-MERTK (#ab14921 Abcam, Cambridge, Mass.), anti-Tyro3 (#5585, CST, Danvers, Mass.), phospho-Tyro3 (#orb186274, Biorbyt LLC, Berkely, Calif.), Bcl-2 Family Antibody Sampler Kit (#9934, CST, Danvers, Mass.), anti-Chk2 (#sc-5278, Santa Cruz Biotech, INC., Santa Cruz, Calif.), anti-XRCC1 (#2735, CST, Danvers, Mass.), anti-γH2AX (Merck Millipore #05636, Darmstadt, Germany), anti-phospho-ATM (#ab81292, Abcam, Cambridge, Mass.), anti-ATM (#ab78, Abcam, Cambridge, Mass.), anti phospho-ATR (#2853, CST, Danvers, Mass.), anti-ATR (#2790, CST, Danvers, Mass.), anti-Phospho Chk1 (#12302, CST, Danvers, Mass.), anti-Phospho Chk2 (#2197, CST, Danvers, Mass.) and anti-RPA32 (#2208, CST, Danvers, Mass.) at 4° C. overnight. The blots were then washed and probed with HRP conjugated anti-goat (#sc-2020, Santa Cruz Biotech, INC., Santa Cruz, Calif.), or HRP conjugated anti-rabbit (#A16110, Thermo Fisher Scientific, Walthan, Mass.) as appropriate. The blots were developed with Bio-Rad Western C developing reagent (#170-5060 Bio-Rad, Hercules, Calif.) and visualized with Chemidoc digital imager (#1708280, Bio-Rad, Hercules, Calif.).

4T1 luciferase cells = assay type: in vivo
Source text: In this model, cells orthotopically implanted in the mammary fat pad generate primary masses that metastasize to the lungs.
Comparison of MYD1-72 Fc with clinical Axl. TKIs There are currently no FDA approved drugs targeting Axl, though several small molecule kinase inhibitors are undergoing clinical trials. BerGenBio's BGB324 (previously Rigel's R428) is the most advanced of these compounds, and the first to be developed prospectively as an Axl inhibitor. […] Furthermore, since TKI's and biologics are fundamentally very different, as are their mechanisms of action, a direct comparison would provide valuable insights into the potential of distinct therapeutic intervention strategies. […] Cells were implanted orthotopically in the mammary fat pad, and primary tumors were allowed to establish prior to treatment. […] This dose for the TKIs was chosen as significant activity has been previously reported at equivalent concentrations.
(§2) Treatment was initiated four days post-surgery.

OVCAR8 = OVCAR8 intraperitoneal ovarian cancer model; assay type: in vivo, mouse; conditions: MYD1-72 Fc 1 mg/kg daily, doxorubicin 2 mg/kg twice weekly, three weeks
Source text: (§3) At this time, several mice were sacrificed at random to ensure engraftment of diffuse metastatic disease, a hallmark of the human condition. […] After three weeks of treatment, mice were sacrificed and tumor burden was quantified both by counting the number of visible lesions, as well as excising and weighing all diseased tissue.
as §2

[2] = system: LM-P orthotopic pancreatic cancer; test: LM-P orthotopic pancreatic cancer model; conditions: immunohistochemistry
Procedure: LMP cells derived from the KRAS/p53 metastatic mouse model were implanted subcutaneously into the flanks of mice and allowed to grow until they reached ˜500 mm^3 in size.
To establish orthotopic tumors, mice harboring subcutaneous tumors were sacrificed and tumors were isolated and cut into small fragments. Laparotomies were then performed and a tumor fragment was secured to the tail of the pancreas.
All procedures involving animals and their care and use were approved by the Institutional Animal Care and Usage Committee of Stanford University. For all in vivo studies, six week old, female nude (nu/nu) mice (Jackson Laboratory, Bar Harbor, Me.) were used. In all studies, animals displaying signs of morbidity were removed from the study immediately. […] Treatment was initiated four days post-inoculation for both studies. […] BGB324 (Selleckchem LLC, Houston, Tex.) and Foretinib (MedChem, Monmouth Junction, N.J.). Small molecules were administered twice daily via oral gavage. […] The orthotropic LM-P pancreatic adenocarcinoma model (a gift from Dr. Edgar Engleman at Stanford University, Stanford, Calif.) was established as previously described. Briefly, 1×10^6 cells were injected subcutaneously into the flanks of nude mice and grown for 2-3 weeks until they reached 500 mm^3. […]

[3] = system: ATM, ATR, CHK1, CHK2 and RPA32 in ovarian cancer cells; test: Western blot of DNA damage response components in ovarian cancer cells; assay type: cell-based; conditions: low serum (0.1% FBS)
Source text: (§4) To further understand this relationship, we performed a reverse phase protein array (RPPA) on shAxl cell lines and wild-type cell lines treated with MYD1-72 Fc. […] In addition, we performed western blot analysis to examine expression levels of classical DNA damage response components, including total and phosphorylated ATM, ATR, CHK1, CHK2 and RPA32 (FIG. 5B) at four time points post MYD1-72 treatment.
as §1

ovarian cancer cells [4] = test: Immunofluorescence of DNA damage foci in ovarian cancer cells; assay type: cell-based
Procedure: (§5) 10,000 cells were plated in each well of glass chamber slide and allowed to attach overnight. […] Cells were then washed with PBS and fixed with 4% paraformaldehyde, lysed for 10 minutes and blocked with a 2% BSA and 0.1% PBS-Triton-X solution for 1 hour. After washes in PBS-Triton-X, cells were incubated with mouse anti-[…]H2AX, (#05-636, Merck Millipore, Darmstadt, Germany); rabbit anti-RAD51, (#PC130-100 UL Merck Millipore, Darmstadt, Germany); rabbit anti-53BP1, (# ab36823, Abcam, Cambridge, Mass.) overnight in a humidified chamber at 4 degrees. Cells were washed with PBS and incubated in secondary antibody anti-rabbit FITC (#65-6111 Thermo Fisher Scientific, Walthan, Mass. or anti-mouse FITC, (#62-6511, Thermo Fisher Scientific, Walthan, Mass.) for 1 hour at 37 degrees and counterstained with Prolong Mounting medium with DAPI. Positive foci intensity were calculated using imagine software Metamorph. EdU (5-ethynyl-2′-deoxyuridine) labeling and co-staining were carried out according to the manufacturer's instructions (#C10637, Thermo Fisher Scientific, Walthan, Mass.). γH2AX staining was performed as described above.
(§6) Cells were visualized using a Leica DM6000 B microscope with Leica Application Suite X software (Wetzlar, Germany). EdU was used at a concentration of 10 μM. EdU labeling was carried out for 1 hour in all cases, for conditions including drug treatments EdU was added during the last hour of treatment. Experiments were carried out in triplicate. Quantification of staining: Positive γH2AX staining refers to cells with over eight foci and pan-nuclear staining. For hydroxyurea (Hu) treated groups, γH2AX positive cells refers to cells where a pan-nuclear staining pattern (typically associated with replication stress) was observed.

skov3.ip = skov3.ip intraperitoneal ovarian cancer model; assay type: in vivo, mouse xenograft; conditions: MYD1-72 Fc 1 mg/kg daily, doxorubicin 2 mg/kg twice weekly, three weeks
Source text: as §3, §2

wild-type cell lines = test: Reverse phase protein array (RPPA); assay type: cell-based; conditions: continuously for seven days in low serum (1% FBS)
Procedure: as §4
The RPPA was performed by MD Anderson as described.

[5] = system: Axl and FLT3 phosphorylation in AML cells; test: Western blot of Axl and FLT3 phosphorylation in AML cells; assay type: cell-based, human
Source text: as §1

ovarian cancer cells [6] = test: EdU labeling and γH2AX co-staining; assay type: cell-based
Procedure: as §5, §6

mouse Gas6 = target: T1, mouse Gas6 (Mus musculus, UniProt Q61592); test: Kinetic Exclusion Assay (KinExA), Gas6-Axl binding, mouse Gas6
T1 sequence (Q61592 28-674): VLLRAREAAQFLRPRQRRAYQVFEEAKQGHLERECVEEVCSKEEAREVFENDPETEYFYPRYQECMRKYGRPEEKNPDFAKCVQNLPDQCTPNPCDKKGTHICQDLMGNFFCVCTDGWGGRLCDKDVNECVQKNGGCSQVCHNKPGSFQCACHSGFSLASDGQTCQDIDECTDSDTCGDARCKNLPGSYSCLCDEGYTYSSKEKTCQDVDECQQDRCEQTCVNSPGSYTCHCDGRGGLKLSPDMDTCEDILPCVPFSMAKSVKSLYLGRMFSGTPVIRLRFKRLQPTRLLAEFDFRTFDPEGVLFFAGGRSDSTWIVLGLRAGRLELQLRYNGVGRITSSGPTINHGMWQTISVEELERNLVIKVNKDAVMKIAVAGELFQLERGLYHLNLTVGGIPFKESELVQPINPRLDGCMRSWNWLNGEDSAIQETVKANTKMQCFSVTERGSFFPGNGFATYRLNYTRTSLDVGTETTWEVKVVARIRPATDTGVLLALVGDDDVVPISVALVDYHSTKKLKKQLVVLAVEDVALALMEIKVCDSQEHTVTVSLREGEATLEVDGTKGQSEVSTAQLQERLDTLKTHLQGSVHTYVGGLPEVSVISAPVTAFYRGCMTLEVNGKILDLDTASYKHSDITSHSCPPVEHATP
Procedure: (§7) Equilibrium binding and association rate constants for all Gas6-Axl interactions were measured on a KinExA3200 instrument (Sapidyne Instruments Inc. Boise, Id.) as previously described. For equilibrium binding studies, three independent titrations were completed for each Axl Ig1 or Axl Fc fusion unless otherwise noted. […] After the appropriate incubation time, reactions were flowed over MYD1 Fc coated beads and captured free Gas6 was probed using an anti-6×HIS Dylight 649 antibody (#200-343-382, Rockland Immunochemicals Inc., Pottstown, Pa.). Each sample was measured twice and data from the three independent equilibrium binding experiments were globally analyzed using n-curve analysis in the KinExA Pro 3.6.2 software (Sapidyne Instruments Inc. Boise, Id.) to obtain the Kd value. To analyze the association rate of the interactions, the direct inject method was used. For these experiments, 1 μM Axl was serially diluted 1:2.5, and equal volumes of each Axl sample and 500 nM Gas6 were briefly mixed and flowed over the capture beads. Free Gas6 was detected as described and the data was fit using the KinExA Pro 3.6.2 software to obtain the association rate (kon) of the interaction. The dissociation rate (koff) was calculated as the product of the Kd and the kon.

human Gas6 = target: T2, human Gas6 (Homo sapiens, UniProt Q14393); test: Kinetic Exclusion Assay (KinExA), Gas6-Axl binding, human Gas6
T2 sequence (Q14393 31-678): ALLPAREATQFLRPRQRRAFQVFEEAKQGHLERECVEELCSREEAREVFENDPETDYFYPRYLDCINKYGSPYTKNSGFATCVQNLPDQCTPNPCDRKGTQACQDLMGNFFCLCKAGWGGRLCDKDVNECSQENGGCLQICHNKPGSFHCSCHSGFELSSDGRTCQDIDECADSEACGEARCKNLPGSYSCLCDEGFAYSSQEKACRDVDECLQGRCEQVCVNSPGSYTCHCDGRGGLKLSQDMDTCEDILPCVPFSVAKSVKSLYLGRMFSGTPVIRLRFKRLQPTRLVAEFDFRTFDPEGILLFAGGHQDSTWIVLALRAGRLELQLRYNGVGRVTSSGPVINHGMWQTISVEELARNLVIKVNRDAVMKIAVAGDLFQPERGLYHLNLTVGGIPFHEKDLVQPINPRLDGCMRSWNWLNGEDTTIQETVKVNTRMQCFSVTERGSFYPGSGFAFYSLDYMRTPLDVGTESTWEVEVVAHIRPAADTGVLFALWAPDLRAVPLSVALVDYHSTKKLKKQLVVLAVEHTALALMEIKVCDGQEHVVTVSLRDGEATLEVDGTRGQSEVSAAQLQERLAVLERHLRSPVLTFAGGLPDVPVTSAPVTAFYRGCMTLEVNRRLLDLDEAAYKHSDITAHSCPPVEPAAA
Procedure: as §7

Molecule: MYD1-72 Fc: Fc fusion of the second generation high-affinity Axl decoy receptor MYD1-72 (Gly32Ser, Ala72Val, Asp87Gly, Val92Ala, Gly127Arg)
- pAxl and pAkt levels [1]: significantly reduced pAxl and pAkt levels
- pMer and pTyro3 levels [1]: pMer and pTyro3 remained relatively unchanged
- lung metastatic disease (4T1 luciferase cells; 0.5 mg/kg iv twice a week, three weeks): significantly less metastatic disease than those treated with MYD1 Fc
- reduction in lung metastases compared to vehicle treated mice (4T1 luciferase cells; MYD1-72 Fc 1 mg/kg daily, TKIs 12.5 mg/kg twice daily, ex vivo bioluminescent imaging): 71%
- size of primary tumors (4T1 luciferase cells; MYD1-72 Fc 1 mg/kg daily, TKIs 12.5 mg/kg twice daily, three weeks, vs control): significantly reduced the size of primary tumors
- γH2AX positive cells in primary tumor (4T1 luciferase cells; immunohistochemistry): significantly more γH2AX positive cells compared to all other treatment groups
- reduction of tumor burden (OVCAR8): 95%
- γH2AX staining (DNA damage) in primary tumor [2]: small effect on DNA damage
- phospho-RPA32 level [3]: Elevated phospho-RPA32 level
- phospho-ATM and phospho-ATR ([3]; four time points): significant induction of phospho-ATM and phospho-ATR at early time points
- phosphorylation of CHK1 and CHK2 ([3]; four time points): increased phosphorylation of both CHK1 and CHK2
- γH2AX foci (ovarian cancer cells [4]; complete media, 0.1 μg or 10 μg): showed no changes across treatments
- 53BP1 and RAD51 foci (ovarian cancer cells [4]; serum-limited conditions): increased the numbers of both 53BP1 and RAD51 foci
- number of γH2AX foci (ovarian cancer cells [4]; serum-limited conditions, vs untreated controls): significant increase in the number of γH2AX foci
- decrease in tumor burden (by weight) vs controls (skov3.ip): 51%
- XRCC1/Chk2 and BAX/BID expression (wild-type cell lines): highly upregulated
- Axl and FLT3 phosphorylation [5]: inhibited Axl and FLT3 phosphorylation
- γH2AX positive cells in combination with hydroxyurea (ovarian cancer cells [6]; hydroxyurea in the presence and absence of MYD1-72 Fc): no additive effect was observed
- non-S phase cells (EdU negative) positive for γH2AX (ovarian cancer cells [6]; treated group): 7%
- γH2AX positive cells that were also in S phase/EdU positive (ovarian cancer cells [6]; treated group): 85%

B1: MYD1 Ig1: first generation high affinity Axl Ig1 variant containing four mutations that conferred improved binding to Gas6 (protein)
chain: APRGTQAEESPFVSNPGNITGARGLTGTLRCQLQVQGEPPEVHWLRDGQILELADSTQTQVPLGEDEQGDWIVASQLRITSLQLSDTGQYQCLVFLGHQTFVSQPGYVRLEGLP
modifications: left off: small tags and cut ends
- binding to mouse Gas6 (mouse Gas6): no increase in binding to mouse Gas6
- Kd (human Gas6; Axl Ig1 variants, read-out: Kd hGas6): 2.7 pM
- koff (human Gas6; calculated as the product of the Kd and the kon): 4.0 10^−5 s^−1
- kon (human Gas6; direct inject method): 1.6 10^7 M^−1 s^−1
